Numbers after ± are expanded uncertainties.
Experiments:
[1] = 298.15 K, 101 kPa, Liquid
[2] = xn = mol fraction of the nth substance listed; conditions: 298.15 K, 101 kPa, Liquid; for viscosity: Capillary tube (Ostwald / Ubbelohde) method; for speed of sound: Linear variable-path acoustic interferometer; for mass density: Pycnometric method

CC(C)CO [2-methyl-1-propanol]
[1]
Conditions	mass density [kg/m3]	speed of sound [m/s]	viscosity [mPa·s]
Capillary tube (Ostwald / Ubbelohde) method	–	–	3.404 ± 0.029
Linear variable-path acoustic interferometer	–	1191.3 ± 9.6	–
Pycnometric method	798.2 ± 0.4	–	–

CC(C)CO [2-methyl-1-propanol] + CCCCCC
[2]
Conditions	mass density [kg/m3]	speed of sound [m/s]	viscosity [mPa·s]
x1 = 0.0554	660.1 ± 0.4	1077.5 ± 8.7	0.323 ± 0.012
x1 = 0.104	664.9 ± 0.4	1077.5 ± 8.7	0.337 ± 0.012
x1 = 0.2	675.1 ± 0.4	1080.1 ± 8.7	0.373 ± 0.012
x1 = 0.3274	690.1 ± 0.4	1086.7 ± 8.8	0.462 ± 0.012
x1 = 0.4173	701.6 ± 0.4	1094.1 ± 8.8	0.547 ± 0.013
x1 = 0.4666	708.3 ± 0.4	1099.2 ± 8.9	0.606 ± 0.013
x1 = 0.5057	713.8 ± 0.4	1103.5 ± 8.9	0.659 ± 0.013
x1 = 0.5589	721.5 ± 0.4	1110 ± 9	0.748 ± 0.013
x1 = 0.609	729 ± 0.4	1116.9 ± 9	0.859 ± 0.013
x1 = 0.7073	744.6 ± 0.4	1132.5 ± 9.2	1.162 ± 0.014
x1 = 0.8051	761.2 ± 0.4	1150 ± 9.3	1.627 ± 0.017
x1 = 0.861	771.2 ± 0.4	1161.3 ± 9.4	2.004 ± 0.019
x1 = 0.9149	781.3 ± 0.4	1172.5 ± 9.5	2.454 ± 0.022
x1 = 0.9376	785.7 ± 0.4	1177.5 ± 9.5	2.67 ± 0.023
x1 = 1	798.2 ± 0.4	1191.3 ± 9.6	3.404 ± 0.029

CC(C)CO [2-methyl-1-propanol] + CCCCCCCC
[2]
Conditions	mass density [kg/m3]	speed of sound [m/s]	viscosity [mPa·s]
x1 = 0.0589	701.5 ± 0.4	1168.3 ± 9.4	0.527 ± 0.013
x1 = 0.1165	704.5 ± 0.4	1166.5 ± 9.4	0.535 ± 0.013
x1 = 0.205	709.8 ± 0.4	1164.8 ± 9.4	0.576 ± 0.013
x1 = 0.2792	714.7 ± 0.4	1164 ± 9.4	0.617 ± 0.013
x1 = 0.3371	718.9 ± 0.4	1163.1 ± 9.4	0.663 ± 0.013
x1 = 0.4081	724.6 ± 0.4	1162.7 ± 9.4	0.719 ± 0.013
x1 = 0.4662	729.6 ± 0.4	1163.3 ± 9.4	0.788 ± 0.013
x1 = 0.5126	733.9 ± 0.4	1163.7 ± 9.4	0.85 ± 0.013
x1 = 0.6126	744.1 ± 0.4	1166.3 ± 9.4	1.028 ± 0.014
x1 = 0.6615	749.5 ± 0.4	1168.4 ± 9.4	1.154 ± 0.014
x1 = 0.7069	754.9 ± 0.4	1170 ± 9.5	1.3 ± 0.015
x1 = 0.7855	765 ± 0.4	1173.5 ± 9.5	1.634 ± 0.017
x1 = 0.8615	775.8 ± 0.4	1178.6 ± 9.5	2.102 ± 0.019
x1 = 0.9523	790.1 ± 0.4	1187 ± 9.6	2.875 ± 0.025
x1 = 1	798.2 ± 0.4	1191.3 ± 9.6	3.404 ± 0.029

From the NIST ThermoML archive (doi:10.1021/je060389r)
